{"source": "paper PMC3441526", "about": "“KCN1, a Novel Synthetic Sulfonamide Anticancer Agent: In Vitro and In Vivo Anti-Pancreatic Cancer Activities and Preclinical Pharmacology” (PLoS ONE, 2012)", "key": {"[1]": {"system": "HPAC cells", "assay": "Anchorage-independent growth assay (soft agar)", "format": "cell-based, human", "conditions": "14 days", "experimental": "(§1) Pancreatic cancer cells were treated with various concentrations of KCN1 in 0.8 ml of 0.35% agar containing 10% FBS. The cultures were maintained in 37°C, 5% CO2 incubator for two weeks. Then, cell colonies were observed and scored under a microscope."}, "[2]": {"system": "Panc-1 cells", "assay": "Anchorage-independent growth assay (soft agar)", "format": "cell-based, human", "conditions": "Panc-1, soft agar, 14 days", "experimental": "as §1"}, "[3]": {"system": "BxPC3 cells", "assay": "BrdUrd incorporation cell proliferation assay", "format": "cell-based", "conditions": "Homo sapiens, BXPC-3; BxPC3, 50 µM, 24 h", "experimental": "(§2) The effect of KCN1 on cell proliferation was determined using the BrdUrd incorporation assay (Oncogene, La Jolla, CA) according to the manufacturer’s instructions, [47]. In brief, cells were seeded in 96-well plates (8 × 10^3 to 1.2 × 10^4 cells per well) and incubated with various concentrations of KCN1 (0, 5, 12.5 and 50 µM) for 24 h. BrdUrd was added to the medium 10 h before termination of the experiment. The BrdUrd incorporated into cells was determined by anti-BrdUrd antibody, and absorbance was measured at dual wavelengths of 450/540 nm using an OPTImax microplate reader (Molecular Devices; Sunnyvale, CA)."}, "[4]": {"system": "HPAC cells", "assay": "BrdUrd incorporation cell proliferation assay", "format": "cell-based", "conditions": "Homo sapiens, 24 h", "experimental": "as §2"}, "[5]": {"system": "Mia Paca-2 cells", "assay": "BrdUrd incorporation cell proliferation assay", "format": "cell-based", "conditions": "Homo sapiens; Mia Paca-2, 50 µM, 24 h", "experimental": "as §2"}, "[6]": {"system": "Panc-1 cells", "assay": "BrdUrd incorporation cell proliferation assay", "format": "cell-based", "conditions": "Homo sapiens; Panc-1, 50 µM, 24 h", "experimental": "as §2"}, "[7]": {"system": "HPAC, Panc-1, Mia Paca-2 and BxPC3 pancreatic cancer cells", "assay": "Western blot of cell cycle-related proteins", "format": "cell-based, human", "conditions": "all four cell lines, 12 h and 24 h", "experimental": "In the in vitro studies, cells were exposed to various concentrations of KCN1 for 12 or 24 h. For immunoblotting, cell lysates were fractionated with identical amounts of protein by SDS-PAGE and transferred to Bio-Rad trans-Blot nitrocellulose membranes (Bio-Rad Laboratories, Hercules, CA). The nitrocellulose membrane was then incubated in blocking buffer (Tris-buffered saline containing 0.1% Tween 20 and 5% non-fat milk) for 1 hr at room temperature. Then the membrane was incubated with the appropriate primary antibody overnight at 4°C or 2 h at room temperature with gentle shaking. The membrane was washed three times with rinsing buffer (Tris-buffered saline containing 0.1% Tween 20) for 15 min and then incubated with goat anti-mouse/rabbit IgG-horseradish peroxidase-conjugated antibody (Bio-Rad) for 1 h at room temperature. After repeating the washes in triplicate, the protein of interest was detected by enhanced chemilluminescence reagents from PerkinElmer LAS, Inc (Boston, MA)."}, "[8]": {"assay": "Pharmacokinetic study in mice", "format": "in vivo, nude mice (nu/nu)", "conditions": "for dose recovered as parental KCN1 from urine: first 24 hr", "experimental": "Female CD-1 and nude mice were administered 35 mg/kg body weight of KCN1 as either a single intravenous injection via a tail vein or via an intraperitoneal injection. At selected time points after dosing, groups of three mice/time point were subjected to a retro-orbital bleed. The blood was collected into heparinized tubes, and plasma was separated by centrifugation. Tissues (brain, skeletal muscle, kidneys, liver, spleen, and heart) were collected by necropsy. Urine and feces were collected on ice for 24 h from mice housed in metabolic cages (n = 3/study). The collection containers and cages were washed twice with 0.9% saline solution, and each urine collection and each wash was analyzed separately, then values were added together for each mouse to determine the total KCN1 present in urine during the collection period. Pharmacokinetic values were derived using Phoenix WinNonlin Version 6.0 (Mountain View, CA).\nAn HPLC protocol was developed to detect KCN1 in different matrices (plasma, urine or tissue homogenates) using an Agilent 1120 instrument. KCN1 was separated on a Zorbax SB-C18 (5 µm, 150 × 4.6 mm) analytical column with a Zorbax Reliance Cartridge Guard Column (SB-C18), and the eluate was monitored by UV at 254 nm. The mobile phase was composed of “A” (methanol +0.1% Et3N)-“B” (ddH2O+0.1% Et3N) (80∶20, v/v). Prior to application, the mobile phase was filtered and degassed using a Millipore glass filter system with a nylon membrane (0.2 µm). The peaks for KCN1 were used to establish standard curves and for quantitative analysis of samples. Quantification of the compound was achieved by determination of the peak area at the retention time of approximately 4.4 minutes.\nPlasma (100 µL) was mixed with 200 µL of methanol, vortexed, and centrifuged to remove precipitated proteins. The supernatant was evaporated to dryness under a stream of air. The residue was dissolved in 100 µL of the mobile phase, and 10 µL was injected onto the HPLC system for analysis. Weighed tissues were homogenized in two to five volumes of PBS (based on the weight of the tissue samples), and portions of the homogenates were processed in the same manner as the plasma samples."}, "[9]": {"system": "glioma cells", "parameters": "method as in PMID 22923450", "conditions": "glioma cells ref 31; cited from earlier work"}, "[10]": {"conditions": "nude mice, 35 mg/kg, either route"}}, "note": "Where two headings read alike, the source gives them in different places.", "data": [{"molecule": "COc1ccc(S(=O)(=O)N(Cc2ccc3c(c2)C=CC(C)(C)O3)c2ccccc2)cc1OC", "note": "[KCN1, 3,4-dimethoxy-N-[(2,2-dimethyl-2H-chromen-6-yl)methyl]-N-phenylbenzenesulfonamide]", "values": [{"measurement": "decrease in number of colonies formed", "setting": "[1]", "result": 4, "unit": "fold"}, {"measurement": "decrease in number of colonies formed", "setting": "[2]", "result": 3, "unit": "fold"}, {"measurement": "inhibition at 50 µM", "setting": "[3]", "result": "~88", "unit": "%"}, {"measurement": "inhibition at 50 µM", "setting": "[4]", "result": "~80", "unit": "%"}, {"measurement": "inhibition at 50 µM", "setting": "[5]", "result": "~60", "unit": "%"}, {"measurement": "inhibition at 50 µM", "setting": "[6]", "result": "~56", "unit": "%"}, {"measurement": "expression of E2F1, Cdk2, Cdk4, Cdk6, Cdc25c, Cyclin D1 and Cyclin E", "setting": "[7]", "result": "decreased expression"}, {"measurement": "expression of p21 and p27", "setting": "[7]", "result": "increased the expression"}, {"measurement": "Tmax", "setting": "[8]; female, nude (nu/nu), mouse, plasma, ip, nude mice, I.P. 35 mg/kg, read-out: time of maximum plasma level", "result": 2, "unit": "h"}, {"measurement": "concentration at 6 h", "setting": "[8]; female, nude (nu/nu), mouse, plasma, iv, nude mice, I.V. 35 mg/kg, 6 h after dosing", "result": "< 300", "unit": "ng/mL"}, {"measurement": "concentration at 5 min", "setting": "[8]; female, nude (nu/nu), mouse, plasma, iv, nude mice, bolus I.V. 35 mg/kg, 5 minutes", "result": 5190, "unit": "ng/mL"}, {"measurement": "half-life", "setting": "[8]; female, nude (nu/nu), mouse, Brain, Nu/nu, IP 35 mg/kg", "result": 0.95, "unit": "h"}, {"measurement": "Tmax", "setting": "[8]; female, nude (nu/nu), mouse, Brain, Nu/nu, IP 35 mg/kg, read-out: Tmax", "result": 1, "unit": "h"}, {"measurement": "half-life", "setting": "[8]; female, nude (nu/nu), mouse, Brain, Nu/nu, IV 35 mg/kg", "result": 3.38, "unit": "h"}, {"measurement": "Tmax", "setting": "[8]; female, nude (nu/nu), mouse, Brain, Nu/nu, IV 35 mg/kg, read-out: Tmax", "result": 0.08, "unit": "h"}, {"measurement": "half-life", "setting": "[8]; female, nude (nu/nu), mouse, Heart, Nu/nu, IP 35 mg/kg", "result": 1.22, "unit": "h"}, {"measurement": "Tmax", "setting": "[8]; female, nude (nu/nu), mouse, Heart, Nu/nu, IP 35 mg/kg, read-out: Tmax", "result": 0.08, "unit": "h"}, {"measurement": "half-life", "setting": "[8]; female, nude (nu/nu), mouse, Heart, Nu/nu, IV 35 mg/kg", "result": 0.36, "unit": "h"}, {"measurement": "Tmax", "setting": "[8]; female, nude (nu/nu), mouse, Heart, Nu/nu, IV 35 mg/kg, read-out: Tmax", "result": 4, "unit": "h"}, {"measurement": "half-life", "setting": "[8]; female, nude (nu/nu), mouse, Kidneys, Nu/nu, IP 35 mg/kg", "result": 22.4, "unit": "h"}, {"measurement": "Tmax", "setting": "[8]; female, nude (nu/nu), mouse, Kidneys, Nu/nu, IP 35 mg/kg, read-out: Tmax", "result": 0.25, "unit": "h"}, {"measurement": "half-life", "setting": "[8]; female, nude (nu/nu), mouse, Kidneys, Nu/nu, IV 35 mg/kg", "result": 1.8, "unit": "h"}, {"measurement": "Tmax", "setting": "[8]; female, nude (nu/nu), mouse, Kidneys, Nu/nu, IV 35 mg/kg, read-out: Tmax", "result": 0.08, "unit": "h"}, {"measurement": "half-life", "setting": "[8]; female, nude (nu/nu), mouse, Liver, Nu/nu, IP 35 mg/kg", "result": 2.52, "unit": "h"}, {"measurement": "Tmax", "setting": "[8]; female, nude (nu/nu), mouse, Liver, Nu/nu, IP 35 mg/kg, read-out: Tmax", "result": 0.5, "unit": "h"}, {"measurement": "half-life", "setting": "[8]; female, nude (nu/nu), mouse, Liver, Nu/nu, IV 35 mg/kg", "result": 3.39, "unit": "h"}, {"measurement": "Tmax", "setting": "[8]; female, nude (nu/nu), mouse, Liver, Nu/nu, IV 35 mg/kg, read-out: Tmax", "result": 2, "unit": "h"}, {"measurement": "half-life", "setting": "[8]; female, nude (nu/nu), mouse, Lungs, Nu/nu, IP 35 mg/kg", "result": 1.04, "unit": "h"}, {"measurement": "Tmax", "setting": "[8]; female, nude (nu/nu), mouse, Lungs, Nu/nu, IP 35 mg/kg, read-out: Tmax", "result": 1, "unit": "h"}, {"measurement": "half-life", "setting": "[8]; female, nude (nu/nu), mouse, Lungs, Nu/nu, IV 35 mg/kg", "result": 2, "unit": "h"}, {"measurement": "Tmax", "setting": "[8]; female, nude (nu/nu), mouse, Lungs, Nu/nu, IV 35 mg/kg, read-out: Tmax", "result": 0.25, "unit": "h"}, {"measurement": "half-life", "setting": "[8]; female, nude (nu/nu), mouse, Muscle, Nu/nu, IP 35 mg/kg", "result": 2.97, "unit": "h"}, {"measurement": "Tmax", "setting": "[8]; female, nude (nu/nu), mouse, Muscle, Nu/nu, IP 35 mg/kg, read-out: Tmax", "result": 0.25, "unit": "h"}, {"measurement": "half-life", "setting": "[8]; female, nude (nu/nu), mouse, Muscle, Nu/nu, IV 35 mg/kg", "result": 2.28, "unit": "h"}, {"measurement": "Tmax", "setting": "[8]; female, nude (nu/nu), mouse, Muscle, Nu/nu, IV 35 mg/kg, read-out: Tmax", "result": 0.08, "unit": "h"}, {"measurement": "half-life", "setting": "[8]; female, nude (nu/nu), mouse, Plasma, Nu/nu, IP 35 mg/kg", "result": 2.65, "unit": "h"}, {"measurement": "half-life", "setting": "[8]; female, nude (nu/nu), mouse, Plasma, Nu/nu, IV 35 mg/kg", "result": 0.6, "unit": "h"}, {"measurement": "half-life", "setting": "[8]; female, nude (nu/nu), mouse, Spleen, Nu/nu, IP 35 mg/kg", "result": 0.81, "unit": "h"}, {"measurement": "Tmax", "setting": "[8]; female, nude (nu/nu), mouse, Spleen, Nu/nu, IP 35 mg/kg, read-out: Tmax", "result": 24, "unit": "h"}, {"measurement": "half-life", "setting": "[8]; female, nude (nu/nu), mouse, Spleen, Nu/nu, IV 35 mg/kg", "result": 1.4, "unit": "h"}, {"measurement": "Tmax", "setting": "[8]; female, nude (nu/nu), mouse, Spleen, Nu/nu, IV 35 mg/kg, read-out: Tmax", "result": 2, "unit": "h"}, {"measurement": "dose recovered as parental KCN1 from urine", "setting": "[8]; nude mice, 35 mg/kg I.P.", "result": "less than 0.5%"}, {"measurement": "dose recovered as parental KCN1 from urine", "setting": "[8]; nude mice, 35 mg/kg intravenously", "result": "less than 1%"}, {"measurement": "detection in brain", "setting": "[8]; [10]", "result": "could not be detected after 6 h"}, {"measurement": "time detectable in heart, lungs, liver, spleen, kidneys and skeletal muscle", "setting": "[8]; [10]", "result": "at least 24 h"}, {"measurement": "time plasma concentration still detectable", "setting": "[8]; nude mice, I.P. 35 mg/kg", "result": "≥ 24", "unit": "h"}, {"measurement": "time plasma concentration still detectable", "setting": "[8]; nude mice, I.V. 35 mg/kg", "result": "at least 6 h"}, {"measurement": "cytostatic effect", "setting": "[9]", "result": "little cytostatic effect"}]}]}
